Laboratory results published in the NIST ThermoML archive (doi:10.1016/j.fluid.2014.08.018).

Details: Liquid, Vibrating tube method

CC[n+]1ccccc1C.O=S(=O)([N-]S(=O)(=O)C(F)(F)F)C(F)(F)F
Details	mass density [kg/m3]
283.15 K, 100 kPa	1520.3
283.15 K, 2500 kPa	1522.2
283.15 K, 5000 kPa	1523.8
283.15 K, 7500 kPa	1525.4
283.15 K, 10000 kPa	1527
283.15 K, 15000 kPa	1530.1
283.15 K, 20000 kPa	1533.1
283.15 K, 25000 kPa	1536
283.15 K, 30000 kPa	1538.8
283.15 K, 35000 kPa	1541.6
283.15 K, 45000 kPa	1546.9
283.15 K, 55000 kPa	1551.8
283.15 K, 65000 kPa	1556.4
288.15 K, 100 kPa	1515.4
288.15 K, 2500 kPa	1517.2
288.15 K, 5000 kPa	1518.9
288.15 K, 7500 kPa	1520.6
288.15 K, 10000 kPa	1522.2
288.15 K, 15000 kPa	1525.3
288.15 K, 20000 kPa	1528.3
288.15 K, 25000 kPa	1531.3
288.15 K, 30000 kPa	1534.2
288.15 K, 35000 kPa	1536.9
288.15 K, 45000 kPa	1542.2
288.15 K, 55000 kPa	1547.3
288.15 K, 65000 kPa	1552
293.15 K, 100 kPa	1510.5
293.15 K, 2500 kPa	1512.4
293.15 K, 5000 kPa	1514.1
293.15 K, 7500 kPa	1515.7
293.15 K, 10000 kPa	1517.4
293.15 K, 15000 kPa	1520.6
293.15 K, 20000 kPa	1523.6
293.15 K, 25000 kPa	1526.6
293.15 K, 30000 kPa	1529.5
293.15 K, 35000 kPa	1532.4
293.15 K, 45000 kPa	1537.8
293.15 K, 55000 kPa	1542.9
293.15 K, 65000 kPa	1547.7
298.15 K, 100 kPa	1505.6
298.15 K, 2500 kPa	1507.5
298.15 K, 5000 kPa	1509.2
298.15 K, 7500 kPa	1510.9
298.15 K, 10000 kPa	1512.5
298.15 K, 15000 kPa	1515.8
298.15 K, 20000 kPa	1519
298.15 K, 25000 kPa	1522
298.15 K, 30000 kPa	1525
298.15 K, 35000 kPa	1527.8
298.15 K, 45000 kPa	1533.3
298.15 K, 55000 kPa	1538.5
298.15 K, 65000 kPa	1543.4
303.15 K, 100 kPa	1500.8
303.15 K, 2500 kPa	1502.7
303.15 K, 5000 kPa	1504.5
303.15 K, 7500 kPa	1506.2
303.15 K, 10000 kPa	1507.9
303.15 K, 15000 kPa	1511.2
303.15 K, 20000 kPa	1514.3
303.15 K, 25000 kPa	1517.5
303.15 K, 30000 kPa	1520.5
303.15 K, 35000 kPa	1523.4
303.15 K, 45000 kPa	1528.9
303.15 K, 55000 kPa	1534.2
303.15 K, 65000 kPa	1539.2
308.15 K, 100 kPa	1495.9
308.15 K, 2500 kPa	1497.9
308.15 K, 5000 kPa	1499.7
308.15 K, 7500 kPa	1501.4
308.15 K, 10000 kPa	1503.1
308.15 K, 15000 kPa	1506.5
308.15 K, 20000 kPa	1509.7
308.15 K, 25000 kPa	1512.9
308.15 K, 30000 kPa	1515.9
308.15 K, 35000 kPa	1518.9
308.15 K, 45000 kPa	1524.5
308.15 K, 55000 kPa	1529.9
308.15 K, 65000 kPa	1534.9
313.15 K, 100 kPa	1491.1
313.15 K, 2500 kPa	1493.2
313.15 K, 5000 kPa	1495
313.15 K, 7500 kPa	1496.8
313.15 K, 10000 kPa	1498.5
313.15 K, 15000 kPa	1502
313.15 K, 20000 kPa	1505.2
313.15 K, 25000 kPa	1508.4
313.15 K, 30000 kPa	1511.5
313.15 K, 35000 kPa	1514.5
313.15 K, 45000 kPa	1520.3
313.15 K, 55000 kPa	1525.7
313.15 K, 65000 kPa	1530.8
318.15 K, 100 kPa	1486.3
318.15 K, 2500 kPa	1488.4
318.15 K, 5000 kPa	1490.3
318.15 K, 7500 kPa	1492.1
318.15 K, 10000 kPa	1493.8
318.15 K, 15000 kPa	1497.3
318.15 K, 20000 kPa	1500.6
318.15 K, 25000 kPa	1503.9
318.15 K, 30000 kPa	1507
318.15 K, 35000 kPa	1510.1
318.15 K, 45000 kPa	1515.9
318.15 K, 55000 kPa	1521.4
318.15 K, 65000 kPa	1526.6
323.15 K, 100 kPa	1481.5
323.15 K, 2500 kPa	1483.7
323.15 K, 5000 kPa	1485.6
323.15 K, 7500 kPa	1487.4
323.15 K, 10000 kPa	1489.2
323.15 K, 15000 kPa	1492.7
323.15 K, 20000 kPa	1496.2
323.15 K, 25000 kPa	1499.5
323.15 K, 30000 kPa	1502.6
323.15 K, 35000 kPa	1505.7
323.15 K, 45000 kPa	1511.7
323.15 K, 55000 kPa	1517.3
323.15 K, 65000 kPa	1522.5
328.15 K, 100 kPa	1476.8
328.15 K, 2500 kPa	1478.9
328.15 K, 5000 kPa	1480.8
328.15 K, 7500 kPa	1482.7
328.15 K, 10000 kPa	1484.5
328.15 K, 15000 kPa	1488.1
328.15 K, 20000 kPa	1491.6
328.15 K, 25000 kPa	1494.9
328.15 K, 30000 kPa	1498.2
328.15 K, 35000 kPa	1501.4
328.15 K, 45000 kPa	1507.4
328.15 K, 55000 kPa	1513
328.15 K, 65000 kPa	1518.4
333.15 K, 100 kPa	1472
333.15 K, 2500 kPa	1474.3
333.15 K, 5000 kPa	1476.2
333.15 K, 7500 kPa	1478.1
333.15 K, 10000 kPa	1480
333.15 K, 15000 kPa	1483.6
333.15 K, 20000 kPa	1487.2
333.15 K, 25000 kPa	1490.5
333.15 K, 30000 kPa	1493.9
333.15 K, 35000 kPa	1497
333.15 K, 45000 kPa	1503.2
333.15 K, 55000 kPa	1509
333.15 K, 65000 kPa	1514.3
